The results in this text go back to ChEMBL document CHEMBL1201862, “PubChem BioAssay data set” (2004).

Assay [1] can be described thus: microbe, parasite or virus in culture. The class given is functional. The note with it: Mycobacterium tuberculosis.
In assay [2] the target is T1, Histone-lysine N-methyltransferase NSD2 (Homo sapiens, UniProt O96028).
T1 sequence (O96028 whole entry): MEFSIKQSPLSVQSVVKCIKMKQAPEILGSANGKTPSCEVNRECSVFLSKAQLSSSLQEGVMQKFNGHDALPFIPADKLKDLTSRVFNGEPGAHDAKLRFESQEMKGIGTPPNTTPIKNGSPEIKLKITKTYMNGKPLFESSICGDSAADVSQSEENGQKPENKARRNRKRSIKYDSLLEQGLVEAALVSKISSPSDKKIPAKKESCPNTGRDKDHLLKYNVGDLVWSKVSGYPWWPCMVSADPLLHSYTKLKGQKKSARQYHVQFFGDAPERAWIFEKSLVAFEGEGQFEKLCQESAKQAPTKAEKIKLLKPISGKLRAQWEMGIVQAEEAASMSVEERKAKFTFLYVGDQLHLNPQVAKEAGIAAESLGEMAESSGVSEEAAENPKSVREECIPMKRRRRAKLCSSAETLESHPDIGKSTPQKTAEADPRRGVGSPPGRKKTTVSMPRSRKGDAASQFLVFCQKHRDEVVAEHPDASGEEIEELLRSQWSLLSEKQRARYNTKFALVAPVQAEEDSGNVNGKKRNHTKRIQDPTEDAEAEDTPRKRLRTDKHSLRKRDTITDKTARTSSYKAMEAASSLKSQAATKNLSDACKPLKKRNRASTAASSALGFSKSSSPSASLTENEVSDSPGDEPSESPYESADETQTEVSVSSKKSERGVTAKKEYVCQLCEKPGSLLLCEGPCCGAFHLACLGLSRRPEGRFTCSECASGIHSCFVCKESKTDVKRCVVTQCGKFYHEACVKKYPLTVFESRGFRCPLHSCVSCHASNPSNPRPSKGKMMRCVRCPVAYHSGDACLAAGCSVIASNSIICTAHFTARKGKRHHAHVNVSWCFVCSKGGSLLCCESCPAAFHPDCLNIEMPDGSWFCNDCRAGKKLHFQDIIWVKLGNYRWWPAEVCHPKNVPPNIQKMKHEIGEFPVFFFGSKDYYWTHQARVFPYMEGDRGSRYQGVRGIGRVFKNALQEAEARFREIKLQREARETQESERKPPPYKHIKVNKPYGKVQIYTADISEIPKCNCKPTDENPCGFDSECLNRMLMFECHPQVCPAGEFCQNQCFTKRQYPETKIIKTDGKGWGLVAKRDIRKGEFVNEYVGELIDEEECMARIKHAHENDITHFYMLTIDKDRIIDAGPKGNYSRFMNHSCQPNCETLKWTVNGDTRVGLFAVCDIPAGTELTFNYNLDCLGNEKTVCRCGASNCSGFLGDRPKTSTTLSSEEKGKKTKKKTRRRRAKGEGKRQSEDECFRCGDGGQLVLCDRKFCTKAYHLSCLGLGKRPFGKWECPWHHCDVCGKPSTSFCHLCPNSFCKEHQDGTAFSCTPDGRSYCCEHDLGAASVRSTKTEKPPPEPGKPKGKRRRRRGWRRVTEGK
The class given is biochemical.

A short description of assay [3]: Vero E6 cell cytotoxicity, dose response, cytotoxicity control for non-replicating M. tuberculosis project, secondary assay (AID 492998). It is filed as functional, VeroE6. The conditions noted are these: Vero C1008.
Assay [4] is described as follows: THP-1 cell cytotoxicity, dose response, cytotoxicity control for non-replicating M. tuberculosis project (AID 489025). It is filed as functional.
Another assay is described as follows: cells. It is filed as functional.
Assay [5] can be described thus: P. falciparum Dd2 growth inhibitors, dose response, SYBR Green, cherry-picked samples (AID 1159567). It is filed as functional, cell-based.
Assay [6] has as its target G-protein coupled receptor 55 (Homo sapiens, UniProt Q9Y2T6). Kind of assay: inhibition of LPI-stimulated GPR55 beta-arrestin translocation – imaging, U2OS, beta-arrestin-GFP, LPI agonist, primary screen (AID 2013).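 Note: antagonist potency measured as reduced agonist-driven arrestin aggregation.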 The class given is functional.
The target in assay [7] is T2, Replicative DNA helicase DnaB (Mycobacterium tuberculosis, UniProt P9WMR3).
T2 sequence (P9WMR3 whole entry): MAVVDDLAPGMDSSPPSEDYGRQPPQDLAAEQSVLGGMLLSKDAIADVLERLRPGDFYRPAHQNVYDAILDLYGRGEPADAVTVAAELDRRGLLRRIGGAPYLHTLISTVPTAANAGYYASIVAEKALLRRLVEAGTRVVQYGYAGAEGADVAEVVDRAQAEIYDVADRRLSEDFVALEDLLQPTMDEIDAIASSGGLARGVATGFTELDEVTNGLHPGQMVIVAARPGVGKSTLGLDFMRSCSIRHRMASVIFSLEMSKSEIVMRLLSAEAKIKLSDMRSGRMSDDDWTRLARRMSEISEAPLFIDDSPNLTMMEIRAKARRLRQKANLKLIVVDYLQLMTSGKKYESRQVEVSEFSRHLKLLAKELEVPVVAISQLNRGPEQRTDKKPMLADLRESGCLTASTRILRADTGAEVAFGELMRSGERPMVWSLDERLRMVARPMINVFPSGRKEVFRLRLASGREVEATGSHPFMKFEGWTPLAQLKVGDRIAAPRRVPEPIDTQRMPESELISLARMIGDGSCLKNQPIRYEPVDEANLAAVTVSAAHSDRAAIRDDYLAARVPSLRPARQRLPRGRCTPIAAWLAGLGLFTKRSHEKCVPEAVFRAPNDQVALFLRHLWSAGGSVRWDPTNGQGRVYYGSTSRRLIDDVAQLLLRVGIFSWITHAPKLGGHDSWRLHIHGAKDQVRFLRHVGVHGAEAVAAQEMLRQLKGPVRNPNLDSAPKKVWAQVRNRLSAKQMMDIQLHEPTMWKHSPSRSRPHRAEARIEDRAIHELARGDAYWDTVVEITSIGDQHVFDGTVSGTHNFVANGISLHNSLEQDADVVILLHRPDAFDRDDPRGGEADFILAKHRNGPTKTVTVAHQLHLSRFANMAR
The experiment in a line: DnaB intein splicing inhibitors, dose response, biochemical, cell-free fluorescence (AID 449749). The class given is functional.

The target in a further assay is T3, Protein RecA (Mycobacterium tuberculosis, UniProt P9WHJ3).
T3 sequence (P9WHJ3 whole entry): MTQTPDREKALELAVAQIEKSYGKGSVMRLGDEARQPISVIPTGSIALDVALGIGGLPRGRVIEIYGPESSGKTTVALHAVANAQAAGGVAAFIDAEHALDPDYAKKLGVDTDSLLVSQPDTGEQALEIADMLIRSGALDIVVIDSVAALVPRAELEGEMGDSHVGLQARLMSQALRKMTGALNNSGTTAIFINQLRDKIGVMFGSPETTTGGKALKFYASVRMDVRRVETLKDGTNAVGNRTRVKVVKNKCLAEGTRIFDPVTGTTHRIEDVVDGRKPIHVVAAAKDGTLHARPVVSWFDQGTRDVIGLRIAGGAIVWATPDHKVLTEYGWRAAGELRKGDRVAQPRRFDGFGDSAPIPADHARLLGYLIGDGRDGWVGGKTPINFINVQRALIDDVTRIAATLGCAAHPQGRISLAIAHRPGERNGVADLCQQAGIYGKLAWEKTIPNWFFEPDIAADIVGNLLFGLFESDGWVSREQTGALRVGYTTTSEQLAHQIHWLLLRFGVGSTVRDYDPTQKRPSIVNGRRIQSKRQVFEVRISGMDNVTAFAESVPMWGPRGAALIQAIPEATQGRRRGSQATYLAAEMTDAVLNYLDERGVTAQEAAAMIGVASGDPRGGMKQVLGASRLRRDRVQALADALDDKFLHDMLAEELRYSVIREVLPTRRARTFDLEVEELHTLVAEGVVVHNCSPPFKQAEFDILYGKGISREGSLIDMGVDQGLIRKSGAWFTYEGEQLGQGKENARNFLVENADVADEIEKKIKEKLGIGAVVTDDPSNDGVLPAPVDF
The experiment in a line: Fluorescence Cell-Free Homogeneous Dose Retest to Identify Inhibitors of RecA-Intein Splicing Activity. [Related pubchem assays (depositor defined):AID2097, AID2223, AID489010, AID492950]. It is filed as functional.

In another assay the target is T4, Leucine aminopeptidase (Plasmodium falciparum 3D7, UniProt Q8IL11).
T4 sequence (Q8IL11 whole entry): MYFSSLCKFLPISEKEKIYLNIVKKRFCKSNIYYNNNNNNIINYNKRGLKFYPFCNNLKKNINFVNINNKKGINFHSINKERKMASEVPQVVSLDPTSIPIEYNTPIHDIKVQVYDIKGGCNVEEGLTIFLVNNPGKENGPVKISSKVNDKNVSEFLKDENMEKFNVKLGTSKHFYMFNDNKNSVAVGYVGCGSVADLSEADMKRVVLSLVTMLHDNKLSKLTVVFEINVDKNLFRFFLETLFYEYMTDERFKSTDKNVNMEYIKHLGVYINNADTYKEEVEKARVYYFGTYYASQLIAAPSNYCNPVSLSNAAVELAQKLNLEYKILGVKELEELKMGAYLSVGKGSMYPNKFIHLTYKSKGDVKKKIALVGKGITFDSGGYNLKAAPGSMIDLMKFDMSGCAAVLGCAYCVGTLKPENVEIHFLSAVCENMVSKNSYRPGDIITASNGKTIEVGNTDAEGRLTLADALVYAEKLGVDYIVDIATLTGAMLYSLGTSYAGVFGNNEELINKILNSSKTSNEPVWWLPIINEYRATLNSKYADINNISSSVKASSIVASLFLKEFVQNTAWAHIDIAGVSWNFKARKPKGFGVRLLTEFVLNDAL
The experiment in a line: P. falciparum M17LAP inhibitors, primary screen, biochemical, fluorogenic H-Leu-NHMec substrate, 1536-well (AID 1619). It is filed as functional.

Assay [8] in a line: OVCAR-3 cell viability loss – plate reader, dry powder samples, PAX8 inhibitor project, dose response (AID 743044). The class given is functional, cell-based.
Another assay concerns the target Paired box protein Pax-8 (Homo sapiens, UniProt Q06710). Kind of assay: PAX8 transcriptional activity inhibition in RMG-I – RMG-I cells, luciferase, cherry-pick, dose response (AID 687027).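 Note: luciferase reporter driven by Pax8 target thyroperoxidase promoter measured by SteadyGlo luminescence.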 It is filed as functional, cell-based.
Assay [9] has as its target Glyceraldehyde-3-phosphate dehydrogenase (Homo sapiens, UniProt P04406).

Structures are written as SMILES. Activity calls are given as the source filed them.

Chain of Glyceraldehyde-3-phosphate dehydrogenase (P04406 whole entry): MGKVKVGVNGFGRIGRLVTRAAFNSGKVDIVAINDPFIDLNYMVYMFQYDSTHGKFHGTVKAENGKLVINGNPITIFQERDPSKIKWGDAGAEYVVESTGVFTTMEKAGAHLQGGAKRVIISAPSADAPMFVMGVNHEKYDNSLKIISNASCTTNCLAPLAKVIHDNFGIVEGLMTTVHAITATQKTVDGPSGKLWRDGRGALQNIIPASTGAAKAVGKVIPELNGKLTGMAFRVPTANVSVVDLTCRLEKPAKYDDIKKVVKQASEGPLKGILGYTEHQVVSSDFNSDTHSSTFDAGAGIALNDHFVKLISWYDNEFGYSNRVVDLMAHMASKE
Chain of Paired box protein Pax-8 (Q06710 whole entry): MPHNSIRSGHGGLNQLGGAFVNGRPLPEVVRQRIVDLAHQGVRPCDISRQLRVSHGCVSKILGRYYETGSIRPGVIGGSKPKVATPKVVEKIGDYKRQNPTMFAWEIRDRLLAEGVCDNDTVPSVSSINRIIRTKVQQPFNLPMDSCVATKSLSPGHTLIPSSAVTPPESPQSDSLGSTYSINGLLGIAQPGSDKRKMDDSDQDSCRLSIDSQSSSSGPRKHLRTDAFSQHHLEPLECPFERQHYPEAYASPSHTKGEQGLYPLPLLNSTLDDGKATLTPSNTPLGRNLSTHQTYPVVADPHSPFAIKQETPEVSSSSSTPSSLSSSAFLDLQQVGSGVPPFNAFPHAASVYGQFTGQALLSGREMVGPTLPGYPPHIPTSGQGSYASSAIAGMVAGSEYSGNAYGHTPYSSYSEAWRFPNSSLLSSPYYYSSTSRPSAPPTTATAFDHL
Chain of G-protein coupled receptor 55 (Q9Y2T6 whole entry): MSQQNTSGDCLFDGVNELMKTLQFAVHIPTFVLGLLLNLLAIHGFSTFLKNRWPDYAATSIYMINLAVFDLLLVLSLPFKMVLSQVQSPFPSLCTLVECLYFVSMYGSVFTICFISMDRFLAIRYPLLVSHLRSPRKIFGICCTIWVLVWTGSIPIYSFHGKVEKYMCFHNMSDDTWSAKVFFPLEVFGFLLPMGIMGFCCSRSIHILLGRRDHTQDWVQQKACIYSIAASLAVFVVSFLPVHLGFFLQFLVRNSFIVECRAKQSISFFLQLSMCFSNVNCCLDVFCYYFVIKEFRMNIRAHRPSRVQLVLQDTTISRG

Take `CSc1cccc(CNC(=O)C2CCC(=O)N(Cc3cccc(C(F)(F)F)c3)C2)c1` (stereo not drawn): the CC50 in [1] was > 40 µM (active).

As to `CCCn1c2c(c(O)c(C(=O)NCCCN(CC)CC)c1=O)CCCC2`, the AC50 in [2] is > 20 µM (inactive).

On to `S=C1SCN(Cc2cccnc2)CN1Cc1ccccc1`, for which the CC50 is 11 µM (active) in assay [3] and 15.2 µM (active) in assay [4]. The IC50 in “cells” is 18.2 µM (active). `CC1(C)Cc2c(C#N)c(N3CCN(C(=O)c4ccccc4)CC3)nc(Cc3ccccc3)c2CO1`: in [1], the CC50 is 39 µM (active). For the molecule `C[C@@H]1CN([C@@H](C)CO)C(=O)c2cc(C#Cc3ccccc3)cnc2O[C@H]1CN(C)C(=O)CN(C)C`, in assay [5], the AC50 is 5.45 µM (active). Turning to `CCn1c(NC(=O)C2CCCCC2)nc2ccccc21`, the CC50 is > 20 µM (active) in [3] and 31.7 µM (active) in assay [4]. Further, in “cells”, the IC50 is 1.33 µM (active).

For `CC(C)c1ccc(NC(=S)NN(c2ccccc2)c2ccccc2)cc1`, in assay [6], the IC50 was 0.793 µM (active). As to `C/C=C/c1ccc2n(c1=O)C[C@H]1[C@H](CO)[C@@H](C(=O)N3CCC(Cc4ccccc4)CC3)N(CCC)[C@@H]21.C/C=C\c1ccc2n(c1=O)C[C@H]1[C@H](CO)[C@@H](C(=O)N3CCC(Cc4ccccc4)CC3)N(CCC)[C@@H]21`, the concentration at half-maximal activity (AC50) in [5] is 15.8 µM (active). Regarding `CNCc1ccccc1Sc1ccc(OC)c(OC)c1`, the AC50 in assay [2] was > 20 µM (inactive).

As for `N#CC1=C(N)Oc2[nH]nc(-c3ccccc3)c2C1c1cccnc1` (stereo not drawn), the AC50 in assay [7] was 6.14 µM (active). Besides, at Protein RecA, the EC50 was 1.79 µM (active). Moreover, the IC50 on Leucine aminopeptidase is 60.4 µM (active).

Turning to `C[C@@H]1CN([C@H](C)CO)C(=O)c2cc(NS(=O)(=O)c3cccs3)ccc2O[C@@H](C)CCCCO[C@@H]1CN(C)Cc1ccc(C(F)(F)F)cc1`, the AC50 in assay [8] was 58.7 µM (active); on Paired box protein Pax-8, 4.55 µM (active). In the case of `Cc1ccccc1-n1cnnc1SCC(=O)N1CCN(c2ccccc2)CC1`, the IC50 in assay [9] was 36.3 µM (active).

With `CC1(C)[N+]([O-])=CC(c2cccs2)=[N+]1[O-]`, the concentration for half-maximal inhibition (IC50) at Leucine aminopeptidase was 22.7 µM (active). For `CC(=O)NC1C(c2nc3ccccc3s2)=C(c2ccccc2)C(=O)N1c1ccc(C)cc1` (stereo not drawn), in assay [1], the CC50 was > 40 µM (active). On to `Cc1ccc(OCC(=O)Nc2ccc(O)c(C(=O)O)c2)cc1C`, for which, at Leucine aminopeptidase, the half-inhibitory concentration (IC50) was 19.5 µM (active). For the molecule `COc1ccc(SC[C@H](Cc2ccccc2)N2CCN(CCc3ccccc3)CCC2=O)cc1`, the CC50 in [1] is > 40 µM (active). The same measure, in the same setting: in the case of `COc1ccc(/N=C(/C2=C(O)CCC2)C2CCCCC2)cc1` it was > 40 µM (active). On to `C=CCC1C=C(Cc2ccccc2)CC(CC=C)N1` (stereo not drawn), for which the AC50 in [2] is > 20 µM (inactive). `CCN1CCN(C2=C(Cl)C(=O)N(c3ccnc(Cl)c3)C2=O)CC1`: the half-inhibitory concentration (IC50) in assay [9] is > 50 µM (inconclusive). On to `Cc1noc(NS(=O)(=O)c2ccc(NC(=O)CSc3nc4ccccc4s3)cc2)c1C`, for which, at Leucine aminopeptidase, the half-inhibitory concentration (IC50) is 15.3 µM (active). Take `O=C1C2CC=CCC2C(=O)N1c1nc(-c2cccnc2)n[nH]1` (stereo not drawn): the 50% inhibitory concentration (IC50) in assay [9] is on record as > 100 µM (not active).
